From ChEMBL document CHEMBL5303304, “EUbOPEN Chemogenomics Library - IncuCyte” (2023)

How the values were obtained:
Format in all cases: toxicity, cell-based
Fibroblast = test: Incucyte cell viability with human fibroblast; conditions: 10 µM, compound concentration 10 uM
HEK-293T = test: Incucyte cell viability with HEK293T; conditions: human, 10 µM, compound concentration 10 uM
U2OS = test: Incucyte cell viability with U2OS; conditions: human, 10 µM, compound concentration 10 uM
Further: unitless GR value; below 1 slowed growth and below 0 cell loss.

Compound | Growth Rate (Fibroblast; 6 h, replicate number 1) | Growth Rate (Fibroblast; 12 h, replicate number 1) | Growth Rate (Fibroblast; 12 h, replicate number 2) | Growth Rate (Fibroblast; 18 h, replicate number 2) | Growth Rate (Fibroblast; 24 h, replicate number 2) | Growth Rate (HEK-293T; 6 h, replicate number 2) | Growth Rate (HEK-293T; 12 h, replicate number 2) | Growth Rate (HEK-293T; 18 h, replicate number 2) | Growth Rate (HEK-293T; 24 h, replicate number 1) | Growth Rate (HEK-293T; 24 h, replicate number 2) | Growth Rate (U2OS; 0 h, replicate number 1) | Growth Rate (U2OS; 6 h, replicate number 2) | Growth Rate (U2OS; 12 h, replicate number 1) | Growth Rate (U2OS; 12 h, replicate number 2) | Growth Rate (U2OS; 18 h, replicate number 1) | Growth Rate (U2OS; 24 h, replicate number 1) | Growth Rate (U2OS; 24 h, replicate number 2) | Growth Rate (Fibroblast; 0 h, replicate number 1) | Growth Rate (Fibroblast; 18 h, replicate number 1) | Growth Rate (U2OS; 6 h, replicate number 1) | other results
CCN1CCN(Cc2ccc(NC(=O)c3ccc(C)c(Oc4ccnc5[nH]ccc45)c3)cc2C(F)(F)F)CC1.Cl.Cl.Cl.O | -0.67 | -1 | 0.02 | -0.03 | -0.05 | -0.99 | -0.8 | -0.55 | -0.63 | -0.43 | -0.12 | 0.57 | 0.84 | 0.38 | 0.36 | 0.17 | 0.04 |  |  |  | Growth Rate (HEK-293T; 6 h, replicate number 1): -0.97; Growth Rate (HEK-293T; 12 h, replicate number 1): -0.89; Growth Rate (HEK-293T; 18 h, replicate number 1): -0.7; Growth Rate (U2OS; 0 h, replicate number 2): -0.97; Growth Rate (U2OS; 18 h, replicate number 2): 0.15
COc1ccc(CSc2nnc(-c3ccc4ncsc4c3)o2)cc1C(F)(F)F | 0.92 | 0.88 | 0.64 | 0.71 | 0.84 | 0.47 | 0.75 | 0.76 | 0.95 | 0.76 | -0.97 | 0.78 |  | 0.87 |  |  | 0.95 | -1 | 0.68 | -0.59 | Growth Rate (Fibroblast; 6 h, replicate number 2): 0.49; Growth Rate (Fibroblast; 24 h, replicate number 1): 0.64; Growth Rate (U2OS; 0 h, replicate number 2): 0.81; Growth Rate (U2OS; 18 h, replicate number 2): -0.67
O=C1CCCc2[nH]c(-c3ccnc(NCC4CC4)c3)c(Nc3ccccc3)c21 | -0.03 | 0.34 | 0.57 | 0.89 | 0.88 | 0.41 | 0.66 | 0.62 | 0.88 | 0.7 | 0.75 |  | 0.68 |  | 0.72 | 0.59 | 1 | -1 | 0.49 | 0.51 | Growth Rate (Fibroblast; 24 h, replicate number 1): 0.45; Growth Rate (HEK-293T; 18 h, replicate number 1): 0.94
CNC(=O)c1ccc2c(c1)NC(=O)/C2=C(\Nc1ccc(CN2CCCCC2)cc1)c1ccccc1.Cl.O |  |  |  |  | 0.78 | 0.72 |  | 0.71 | 1 | 0.54 | -1 |  | 0.94 |  | 0.82 | 0.89 |  | -1 |  |  | 
CC1CCN(C(=O)[C@@H](CCn2cccc2C#N)NS(=O)(=O)c2cccc3[nH]ccc23)CC1 |  |  |  | 0.96 |  | 0.99 |  |  |  |  | 0.26 | 0.85 |  | 0.81 |  | 0.86 |  |  |  | 0.55 | Growth Rate (Fibroblast; 0 h, replicate number 2): -0.84
CC1CNCCc2c1nc1ccnn1c2N1CC(C(=O)N2CCC(C)(C)C2)C1 (stereo unspecified) | 0.73 | 0.56 | 0.76 | 0.74 | 0.97 | 0.99 |  |  |  |  | 0.03 |  | 0.75 |  | 0.86 | 0.98 |  | -1 | 0.7 | 0.99 | Growth Rate (Fibroblast; 6 h, replicate number 2): -0.38; Growth Rate (Fibroblast; 24 h, replicate number 1): 0.84
CCN1CCN(Cc2ccc(NC(=O)c3ccc(C)c(NC(=O)c4cncc(-c5cccs5)c4)c3)cc2C(F)(F)F)CC1 |  |  | -0.76 | -0.54 | -0.41 | -0.99 | -0.83 | -0.61 | -0.6 | -0.41 | -0.74 | -0.47 | -0.52 | -0.42 | -0.59 | -0.6 | -0.55 |  | -0.92 | -0.87 | Growth Rate (Fibroblast; 0 h, replicate number 2): -0.99; Growth Rate (Fibroblast; 6 h, replicate number 2): -1; Growth Rate (Fibroblast; 24 h, replicate number 1): -0.74; Growth Rate (HEK-293T; 6 h, replicate number 1): -0.97; Growth Rate (HEK-293T; 12 h, replicate number 1): -0.9; Growth Rate (HEK-293T; 18 h, replicate number 1): -0.73; Growth Rate (U2OS; 0 h, replicate number 2): -0.23; Growth Rate (U2OS; 18 h, replicate number 2): -0.53
